Measurements taken from patent US7517884B2 (Kalypsys Inc., priority 1998, dated 2009).

Columns and labels:
Assay type in all cases: cell-based, murine and human
Conditions in all cases: GAL4-PPAR LBD chimera
[1] = target: T1, PPAR-gamma (UniProt P37231); assay: PPAR-gamma transactivation assay (GAL4 chimera, luciferase reporter) in CV-1 cells
T1 sequence (P37231 1-505): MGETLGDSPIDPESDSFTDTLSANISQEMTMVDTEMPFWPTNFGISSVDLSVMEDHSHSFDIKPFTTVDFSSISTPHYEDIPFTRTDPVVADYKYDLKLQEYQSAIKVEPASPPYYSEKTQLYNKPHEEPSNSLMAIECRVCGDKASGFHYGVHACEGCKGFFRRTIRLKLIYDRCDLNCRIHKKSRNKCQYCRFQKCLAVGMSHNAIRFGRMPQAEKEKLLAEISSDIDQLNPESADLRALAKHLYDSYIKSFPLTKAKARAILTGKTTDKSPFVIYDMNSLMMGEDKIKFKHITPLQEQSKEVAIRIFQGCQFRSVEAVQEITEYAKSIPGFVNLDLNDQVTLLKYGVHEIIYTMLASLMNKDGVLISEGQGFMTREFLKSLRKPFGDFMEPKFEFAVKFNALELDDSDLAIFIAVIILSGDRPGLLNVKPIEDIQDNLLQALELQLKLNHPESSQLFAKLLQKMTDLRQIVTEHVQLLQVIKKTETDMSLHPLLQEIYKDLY
Description: (§1) Compounds may be screened for functional potency in transient transfection assays in CV-1 cells for their ability to activate the PPAR subtypes (transactivation assay). A previously established chimeric receptor system was utilized to allow comparison of the relative transcriptional activity of the receptor subtypes on the same synthetic response element and to prevent endogenous receptor activation from complicating the interpretation of results. See, for example, Lehmann, J. M.; Moore, L. B.; Smith-Oliver, T. A; Wilkinson, W. O.; Willson, T. M.; Kliewer, S. A., An antidiabetic thiazolidinedione is a high affinity ligand for peroxisome proliferator-activated receptor […], J. Biol. Chem., 1995, 270, 12953-6. The ligand binding domains for murine and human PPAR-alpha, PPAR-gamma, and PPAR-delta are each fused to the yeast transcription factor GAL4 DNA binding domain. CV-1 cells were transiently transfected with expression vectors for the respective PPAR chimera along with a reporter construct containing four or five copies of the GAL4 DNA binding site driving expression of luciferase. After 8-16 h, the cells are replated into multi-well assay plates and the media is exchanged to phenol-red free DME medium supplemented with 5% delipidated calf serum. 4 hours after replating, cells were treated with either compounds or 1% DMSO for 20-24 hours. Luciferase activity was then assayed with Britelite (Perkin Elmer) following the manufacturer's protocol and measured with either the Perkin Elmer Viewlux or Molecular Devices Acquest (see, for example, Kliewer, S. A., et. al. Cell 1995, 83, 813-819). Rosiglitazone is used as a positive control in the PPARγ assay. Wy-14643 and GW7647 are used as positive controls in the PPARα assay. GW501516 is used as the positive control in the PPARδ assay.
(§2) Compounds of Examples 1-141 were assayed to measure their biological activity with respect to their EC50 values for modulating PPAR-alpha, PPAR-gamma, and PPAR-delta as set forth in Table 1.

[2] = target: T2, PPAR-delta (UniProt Q03181); assay: PPAR-delta transactivation assay (GAL4 chimera, luciferase reporter) in CV-1 cells
T2 sequence (Q03181 1-441): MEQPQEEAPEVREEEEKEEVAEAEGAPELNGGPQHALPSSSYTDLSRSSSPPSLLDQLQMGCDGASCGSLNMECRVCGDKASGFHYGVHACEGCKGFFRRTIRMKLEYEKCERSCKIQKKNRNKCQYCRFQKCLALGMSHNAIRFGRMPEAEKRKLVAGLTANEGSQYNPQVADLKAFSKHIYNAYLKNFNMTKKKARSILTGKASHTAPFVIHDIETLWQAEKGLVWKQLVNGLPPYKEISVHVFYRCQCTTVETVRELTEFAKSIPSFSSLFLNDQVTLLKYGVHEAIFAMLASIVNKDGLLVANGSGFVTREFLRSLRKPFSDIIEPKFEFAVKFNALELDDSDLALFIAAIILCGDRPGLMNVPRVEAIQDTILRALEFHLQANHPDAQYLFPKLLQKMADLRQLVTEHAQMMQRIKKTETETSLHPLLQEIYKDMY
Description: as §1, §2

[3] = target: T3, PPAR-alpha (UniProt Q07869); assay: PPAR-alpha transactivation assay (GAL4 chimera, luciferase reporter) in CV-1 cells
T3 sequence (Q07869 1-468): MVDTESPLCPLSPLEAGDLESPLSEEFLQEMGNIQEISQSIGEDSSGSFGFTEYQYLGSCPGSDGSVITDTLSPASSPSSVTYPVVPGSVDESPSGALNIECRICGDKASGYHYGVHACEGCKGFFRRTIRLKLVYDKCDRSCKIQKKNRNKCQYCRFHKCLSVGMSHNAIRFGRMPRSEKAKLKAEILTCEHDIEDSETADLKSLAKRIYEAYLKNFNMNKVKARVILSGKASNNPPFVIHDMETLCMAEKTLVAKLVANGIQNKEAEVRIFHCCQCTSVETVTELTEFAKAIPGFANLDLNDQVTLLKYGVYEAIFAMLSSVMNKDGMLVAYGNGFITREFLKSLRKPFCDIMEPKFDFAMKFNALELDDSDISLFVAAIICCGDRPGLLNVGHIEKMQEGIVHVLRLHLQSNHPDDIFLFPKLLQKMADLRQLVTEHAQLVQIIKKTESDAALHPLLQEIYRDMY
Description: as §1, §2

Compound	EC50 [1] [µM]	EC50 [2] [µM]	EC50 [3] [µM]
C[C@@H]1CN(c2ccc(C(F)(F)F)c(Cl)c2)C[C@H](C)N1S(=O)(=O)c1cccc2c1CC(C(=O)O)C2 (relative stereo) [Example 82, 4-[4-(3-chloro-4-trifluoromethyl-phenyl)-cis-2,6-dimethyl-piperazine-1-sulfonyl]-indan-2-carboxylic acid]	> 100	< 5	> 100
O=C(O)C1Cc2cccc(S(=O)(=O)N3CCN(c4ccc(C(F)(F)F)cn4)CC3)c2C1 (single isomer, unassigned) [Example 11]	< 5	< 5	5 to 100
C[C@@H]1CN(c2ccc(C(F)(F)F)cn2)C[C@H](C)N1S(=O)(=O)c1ccc2c(c1)C(C(=O)O)CC2 (single isomer, unassigned) [Example 75, 6-[cis-2,6-dimethyl-4-(5-trifluoromethylpyridin-2-yl)-piperazine-1-sulfonyl]-indan-1-carboxylic acid]	5 to 100	< 5	5 to 100
C[C@@H]1CN(c2ccc(C(F)(F)F)cn2)C[C@H](C)N1S(=O)(=O)c1ccc2c(c1)C(C(=O)O)CC2 (single isomer, unassigned) [Example 76, 6-[cis-2,6-dimethyl-4-(5-trifluoromethylpyridin-2-yl)-piperazine-1-sulfonyl]-indan-1-carboxylic acid]	> 100	< 5	> 100
C[C@@H]1CN(c2ccc(OC(F)(F)F)cc2)C[C@H](C)N1S(=O)(=O)c1cccc2c1CC(C(=O)O)C2 (single isomer, unassigned) [Example 80]	> 100	< 5	> 100
CC1CN(S(=O)(=O)c2cccc3c2CC(C(=O)O)C3)C(C)CN1c1ccc(C(F)(F)F)cn1 (single isomer, unassigned) [Example 118, 4-[2S,5S-dimethyl-4-(5-trifluoromethyl-pyridin-2-yl)-piperazine-1-sulfonyl]-indan-2-carboxylic acid]	5 to 100	< 5	> 100
CC1CN(S(=O)(=O)c2cccc3c2CC(C(=O)O)C3)C(C)CN1c1ccc(C(F)(F)F)cn1 (single isomer, unassigned) [Example 119, 4-[2S,5S-dimethyl-4-(5-trifluoromethyl-pyridin-2-yl)-piperazine-1-sulfonyl]-indan-2-carboxylic acid]	> 100	5 to 100	> 100
C[C@@H]1CN(c2ccc(Cl)cc2)C[C@H](C)N1S(=O)(=O)c1cccc2c1CC(C(=O)O)C2 (single isomer, unassigned) [Example 127, 4-(4-(4-chlorophenyl)-cis-2,6-dimethylpiperazin-1-ylsulfonyl)-2,3-dihydro-1H-indene-2-carboxylic acid]	> 100	< 5	> 100
C[C@@H]1CN(c2ccc(Cl)cc2)C[C@H](C)N1S(=O)(=O)c1cccc2c1CC(C(=O)O)C2 (single isomer, unassigned) [Example 128, 4-(4-(4-chlorophenyl)-cis-2,6-dimethylpiperazin-1-ylsulfonyl)-2,3-dihydro-1H-indene-2-carboxylic acid]	> 100	5 to 100	> 100
C[C@@H]1CN(c2cccc(OC(F)(F)F)c2)C[C@H](C)N1S(=O)(=O)c1cccc2c1CC(C(=O)O)C2 (single isomer, unassigned) [Example 129, 4-[cis-2,6-dimethyl-4-(3-trifluoromethoxyphenyl)piperazin-1-ylsulfonyl]-2,3-dihydro-1H-indene-2-carboxylic acid]	> 100	< 5	> 100
C[C@@H]1CN(c2cccc(OC(F)(F)F)c2)C[C@H](C)N1S(=O)(=O)c1cccc2c1CC(C(=O)O)C2 (single isomer, unassigned) [Example 130, 4-[cis-2,6-dimethyl-4-(3-trifluoromethoxyphenyl)piperazin-1-ylsulfonyl]-2,3-dihydro-1H-indene-2-carboxylic acid]	> 100	5 to 100	> 100
